Measured values taken from the SangsterLogP compilation.

Test: method code SF-AS, from DOI: 10.1002/qsar.19830020303
Conditions: not given

`Cc1cc(C)nc(C)c1` showed a logP of 2.01.

Test: method code SF, from DOI: 10.1002/qsar.19830020303
Conditions: not given

In order of rising logP:
1. CC(=O)Nc1ncccn1  -0.75
2. NS(=O)(=O)c1cccnc1  -0.49
3. CN(C)C(=O)c1cccnc1  -0.48
4. NC(=S)c1ncccn1  -0.34
5. NC(=O)c1ccncc1  -0.28
6. COC(=O)c1cnccn1  -0.17
7. CN(C)c1ccnnc1  -0.09
8. NC(=O)c1ccc(Cl)nn1  0
9. CCOC(=O)c1ccc(Cl)nn1  0.12
10. Cc1cc(N)ncn1  0.19
11. CN(C)c1cccnn1  0.29
12. Nc1ccc(Cl)nn1  0.35
13. NNC(=O)c1ccc2ncccc2c1  0.35
14. Cc1cc(N)nc(C)n1  0.39
15. CC(=O)Nc1ccncc1  0.5
16. NS(=O)(=O)c1ccc2ncccc2c1  0.56
17. Cc1cc(NN)ncn1  0.62
18. NC(=S)c1cccnc1  0.67
19. CS(=O)(=O)c1ccc2ncccc2c1  0.7
20. CN(C)c1ccc(Cl)nn1  0.98
21. CSc1ccc2ccccc2n1  3.04

Same assay, conditions: pH 7.4

`Oc1cnc2ccccc2c1` showed a logD of 2.08.

Test: not given
Conditions: not given

In order of rising logP:
1. O=[N+]([O-])c1cc2ccccc2nn1  0.73
2. Nc1nncc2ccccc12  0.82
3. COc1ccc(Cl)nn1  0.89
4. NC(=O)c1cnc2ccccc2n1  0.98
5. CN(C)c1ccc(N(C)C)nn1  0.99
6. CN(C)C(=O)c1cnc2ccccc2c1  0.99
7. Nc1cc2ccccc2nn1  1
8. Nc1cnnc2ccccc12  1.04
9. NC(=O)c1cnc2ccccc2c1  1.06
10. Cc1cccnc1  1.19
11. Nc1ncnc2ccccc12  1.28
12. Nc1ccnc2c([N+](=O)[O-])cccc12  1.31
13. c1ccc(-c2nnco2)cc1  1.31
14. COc1cnnc2ccccc12  1.41
15. CN(C)c1ccccn1  1.43
16. CC(=O)c1cc2ccccc2nn1  1.44
17. CC(=O)Nc1ccc2cccnc2c1  1.55
18. Clc1cc2ccccc2nn1  1.57
19. Cc1cccc2c(N)cnnc12  1.57
20. N#Cc1cnc2ccccc2c1  1.57
21. N#Cc1ccc2ccccc2n1  1.6
22. NNc1ncnc2ccccc12  1.67
23. CSc1ccccn1  1.71
24. Brc1cc2ccccc2nn1  1.72
25. Clc1ccc2cncnc2c1  1.74
26. CC(=O)c1cnc2ccccc2c1  1.76
27. O=CNc1cccc2cccnc12  1.8
28. CCCCOc1cccnn1  1.8
29. CSc1ccc(SC)nn1  1.85
30. CSc1nc(C)cc(C)n1  1.86
31. COc1ccnc2c([N+](=O)[O-])cccc12  1.92
32. c1ccc(-c2ncncn2)cc1  1.93
33. O=C(c1ccccc1)c1ccccn1  1.96
34. Cc1cnnc2ccc(Cl)cc12  1.96
35. COc1ncnc2ccccc12  1.97
36. Cc1cnnc2cc(Cl)ccc12  1.98
37. O=Cc1ccc2ccccc2n1  2.14
38. COc1nnc(OC)c2ccccc12  2.22
39. COC(=O)c1cnc2ccccc2c1  2.25
40. CCCOc1cncc(C)n1  2.29
41. CCOC(=O)c1cc2ccc(CC)cc2nn1  2.31
42. O=S(=O)(c1ccccc1)c1cccc2cccnc12  2.33
43. CC(C)(C)c1ccccn1  2.4
44. c1ccc(Oc2ccccn2)cc1  2.45
45. CSc1ncc2ccccc2n1  2.5
46. c1ccc2c(NC3CCCC3)ncnc2c1  2.61
47. CCOC(=O)c1ccc2ncccc2c1  2.64
48. c1ccc(-c2ncnc3ccccc23)cc1  2.71
49. c1ccc(Nc2ccccn2)cc1  2.75
50. COc1cc(C)nc2ccccc12  2.81
51. CN(C)c1ccc2ccccc2n1  2.81
52. c1ccc2c(N3CCCCC3)ncnc2c1  2.92
53. Nc1nc(-c2ccccc2)c2ccccc2n1  2.95
54. Ic1ccc2ccccc2n1  3.04
55. Cc1nc(-c2ccccc2)c2ccccc2n1  3.1
56. c1ccc(Sc2cccnc2)cc1  3.15
57. CN(C)c1nnc(-c2ccccc2)c2ccccc12  3.22
58. COc1nc(-c2ccccc2)c2ccccc2n1  3.5
59. CNc1nc(-c2ccccc2)c2ccccc2n1  3.58
